# Experiments:
# [1] = system: inactive MMP-9 (pro-MMP-9); experiment: Gelatin gel zymography, inactive MMP-9 band; format: biochemical; settings: inactive MMP-9 (~47 kDa band); densitometry vs no inhibitor; n=5
# Procedure: Novex™ 10% Zymogram Plus (Gelatin) Protein Gels (15 wells) were purchased from Thermo Fisher Scientific Inc. (Auckland, New Zealand). All chemicals required for the zymogram analysis were also purchased from Thermo Fisher, these include Novex™ Sharp Pre-stained Protein Standard, Novex Tris-Glycine SDS sample buffer, Novex Tris-Glycine SDS running buffer, Novex Zymogram renaturing buffer and Novex Zymogram developing buffer. […] Gelatin gel zymography was performed as an independent technique to confirm the inhibition of MMP-9 from 3,6,7-trimethyllumazine. This technique uses a non-reducing SDS-PAGE (sodium dodecyl sulfate polyacrylamide gel electrophoresis) gel embedded with gelatin. Proteins are migrated and separated during electrophoresis. The SDS is removed after electrophoresis and the gel is then incubated with essential cofactors required for enzymatic activity. The embedded gelatin can be digested by MMP-9, resulting in clear bands on a dark blue background after staining with Coomassie blue dyes. The gelatinase activity is represented by band densitometry, which can be assessed with image analysis software. […]
# After incubation, the gelatin gel was rinsed with water for three times (5 min each) under gentle agitation. […] MMP-9 activities were analysed using densitometry on ImageJ Version 1.52a. […]
# [2] = system: COX-2 protein expression in THP-1 cells; experiment: LPS-induced COX-2 protein expression in THP-1 cells (Western blot); format: cell-based, human; settings: for COX-2 Relative expression (mean ± SEM): LPS 24 hours, LPS positive control 1.26 ± 0.11, n=6
# Procedure: THP-1 cells were seeded in 12-well tissue-culture treated plates at a density of 500,000 cells/well in growth media overnight. […] Cells were washed with cold PBS and lysed in RIPA buffer containing protease inhibitors (Sigma P2714) for 15 minutes on ice. Debris was pelleted by centrifugation at 14,000×g for 15 min and lysate supernatants were frozen at −80° C. for later analysis by western blot.
# Western blots for semi-quantitative COX-2 (Abcam ab188183) protein expression were conducted on THP-1 monocyte cells lysed with RIPA buffer containing protease inhibitors. A total of 10 μg protein was loaded onto precast 10% acrylamide gels (BioRad, NZ) then separated by electrophoresis at 120 V at room temperature. […] The membranes were then incubated with the primary antibody that correspond to the protein of interest for 1 h. […] Western blot images were captured with an Amersham™ Imager 600 (GE Healthcare, Chicago, Ill., USA) and densitometry measurement of protein bands was analysed with the accompanying image analysis software.
# For analysis of Western blots, densitometry measurements from the proteins of interest were normalised to the densitometry of p-actin for each sample. […] The significance level was set at p≤0.05.
smiles,measurement,setting,value
"Cc1nc2[nH]c(=O)n(C)c(=O)c2nc1C [3,6,7-trimethyllumazine]",percentage inhibition of gelatinase activity,[1],17%
same,COX-2 Relative expression (mean ± SEM),[2]; 12.5 μg/mL,0.98 ± 0.05
same,COX-2 Relative expression (mean ± SEM),[2]; 25 μg/mL,0.99 ± 0.07
same,reduction in COX-2 protein compared to the LPS treatment,[2]; 50 ug/mL,significant reduction
same,COX-2 Relative expression (mean ± SEM),[2]; 50 μg/mL,0.90 ± 0.09
same,COX-2 Relative expression (mean ± SEM),[2]; 100 μg/mL,0.96 ± 0.13
same,reduction of COX-2 protein expression compared to LPS-stimulated cells,"[2]; all doses tested, 12.5-100 μg/mL",16-23%

# From patent publication US20230226065A1, “ANTI-INFLAMMATORY COMPOSITIONS, METHODS AND USES THEREOF” (COMVITA LIMITED, priority 2020, published 2023)
